In PMC10742785, “Screening and Characterization of an α-Amylase Inhibitor from Carya cathayensis Sarg. Peel” (Foods, 2023) one finds IC50 data, which are given here for 1 compound.

The assay concerns the target T1, α-amylase (hog pancreas) (Sus scrofa, UniProt P00690).
T1 construct: gene AMY2
T1 sequence (P00690 16-511): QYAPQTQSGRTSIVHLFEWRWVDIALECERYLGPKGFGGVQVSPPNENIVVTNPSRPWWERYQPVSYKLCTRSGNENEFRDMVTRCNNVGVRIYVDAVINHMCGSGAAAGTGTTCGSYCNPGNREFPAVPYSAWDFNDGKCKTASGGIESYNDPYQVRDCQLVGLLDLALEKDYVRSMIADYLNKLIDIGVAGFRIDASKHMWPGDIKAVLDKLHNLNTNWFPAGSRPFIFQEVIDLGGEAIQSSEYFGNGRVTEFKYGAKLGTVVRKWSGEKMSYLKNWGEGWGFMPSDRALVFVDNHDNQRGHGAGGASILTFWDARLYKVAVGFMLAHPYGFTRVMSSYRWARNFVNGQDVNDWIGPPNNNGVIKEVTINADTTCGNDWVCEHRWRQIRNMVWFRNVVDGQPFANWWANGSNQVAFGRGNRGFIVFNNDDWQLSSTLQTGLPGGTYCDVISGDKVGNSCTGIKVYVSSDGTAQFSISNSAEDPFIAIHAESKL
Nature of the assay: DNS starch hydrolysis assay with hog pancreas α-amylase; Lineweaver–Burk, Dixon and Eisenthal–Cornish-Bowden kinetics. The format is biochemical.

Take `O=C(/C=C/c1ccc(O)cc1)O[C@@H]1CC(O)(C(=O)O)C[C@@H](O)C1O` (stereo partly shown) [5-CQA, 5-O-p-coumaroylquinic acid]: the half-maximal inhibitory concentration (IC50) – broadly, the concentration that gives 50% inhibition – was determined as 69.4 µM. That is a double-digit micromolar value.
